Columns and labels:
[1] = tested on: Septoria tritici; assay: Test F: wheat leaf blotch, preventive spray on wheat seedlings, visual disease rating; format: in vivo; conditions: 100 = 100% disease control, 0 = no disease control relative to the controls
Text: (§1) A hyphen (-) indicates no test results.

[2] = tested on: Puccinia recondita f. sp. tritici; assay: Test G: wheat leaf rust, spray after inoculation (curative) on wheat seedlings, visual disease rating; format: in vivo; conditions: sprayed after inoculation, 100 = 100% disease control, 0 = no disease control
Text: as §1

[3] = tested on: Puccinia recondita f. sp. tritici; assay: Test H: wheat leaf rust, preventive spray on wheat seedlings, visual disease rating; conditions: wheat leaf rust, sprayed the day before inoculation; 100 = 100% disease control, 0 = no disease control
[4] = tested on: Botrytis cinerea; assay: Test A: tomato Botrytis, preventive spray on tomato seedlings, visual disease rating; conditions: tomato Botrytis; 100 = 100% disease control, 0 = no disease control relative to the controls
[5] = tested on: Alternaria solani; assay: Test B: tomato early blight, preventive spray on tomato seedlings, visual disease rating; conditions: tomato early blight; 100 = 100% disease control, 0 = no disease control relative to the controls
[6] = tested on: Blumeria graminis f. sp. tritici; assay: Test I: wheat powdery mildew, preventive spray on wheat seedlings, visual disease rating; conditions: wheat powdery mildew; 100 = 100% disease control, 0 = no disease control relative to the controls
[7] = tested on: Septoria nodorum; assay: Test E: Septoria glume blotch, preventive spray on wheat seedlings, visual disease rating; conditions: Septoria glume blotch; 100 = 100% disease control, 0 = no disease control relative to the controls

| Compound | Test F rating (disease control) [1] [%] | Test G rating (disease control) [2] [%] | Test H rating (disease control) [3] [%] | Test A rating (disease control) [4] [%] | Test B rating (disease control) [5] [%] | Test I rating (disease control) [6] [%] | Test E rating (disease control) [7] [%] |
| --- | --- | --- | --- | --- | --- | --- | --- |
| COc1ccc(Nc2c(-c3c(F)cccc3F)c(C)nn2C)c(Cl)c1 [compound 60] | 100 | 18 | 97 | 99 | 97 | 99 | 20 |
| Cc1nn(C)c(Nc2ccc(F)cc2Cl)c1-c1ccc(F)cc1F [compound 61] | 100 | 0 | 99 | 100 | 93 | 100 | 64 |
| COc1cc(F)c(-c2c(C)nn(C)c2C(O)c2ccc(F)cc2F)c(F)c1 (centres unmarked) [compound 62] | 100 | 0 | 99 | 100 | 100 | 99 | 99 |
| COc1ccc(Nc2c(-c3ccc(F)cc3F)c(C)nn2C)c(F)c1 [compound 63] | 99 | 0 | 80 | 99 | 99 | 99 | 0 |
| Cc1nn(C)c(Nc2ccc(F)cc2F)c1-c1ccc(F)cc1F [compound 64] | 100 | 0 | 97 | 99 | 99 | 100 | 0 |
| COc1ccc(Nc2c(-c3ccc(F)cc3F)c(C)nn2C)c(Cl)c1 [compound 66] | 100 | 0 | 91 | 99 | 37 | 100 | 0 |
| Cc1nn(C)c(Nc2ccc(Cl)cc2Cl)c1-c1ccc(F)cc1F [compound 67] | 100 | 0 | 97 | 100 | 64 | 100 | 0 |
| Cc1nn(C)c(Nc2ccc(C#N)cc2F)c1-c1ccc(F)cc1F [compound 68] | 100 | 0 | 80 | 99 | 51 | 100 | 0 |
| Cc1nn(C)c(Nc2c(F)cccc2F)c1-c1c(F)cccc1F [compound 69] | 100 | 0 | 99 | 100 | 99 | 100 | 60 |
| Cc1nn(C)c(Nc2c(F)cc(F)cc2F)c1-c1ccccc1Br [compound 70] | 100 | 0 | 99 | 99 | 26 | 100 | 73 |
| Cc1nn(C)c(Nc2c(F)cccc2F)c1-c1ccc(F)cc1F [compound 71] | 100 | 0 | 99 | 99 | 99 | 100 | 96 |

— patent US20170150719A1, “FUNGICIDAL PYRAZOLES AND THEIR MIXTURES” (E I DU PONT DE NEMOURS AND COMPANY, priority 2010, published 2017)
